# Tests used:
# Format in all cases: cell-based
# H-146 = assay: MTS cell viability assay, H-146; settings: cells incubated 72 h
# Description: (§1) Cells were plated, the evening before treatment, for each treatment on 96-well plates (1×10^4 cells/well) in 100 μL volume per well. Analog solutions were prepared by diluting each test compound in DSMO (10 mM) with the appropriate cell growth media for each individual cell line, or in “Universal Media” if several cell lines were to be assayed in parallel, immediately prior to cell treatment. Universal Media consisted of 5 mL sodium pyruvate (100× liquid stock, MediaTech), 5 mL glucose (100×, 45% liquid stock, MediaTech), 5 mL Penicillin/Streptomycin (100× liquid stock, MediaTech), 10 mL sodium bicarbonate (50× liquid stock, MediaTech), 25 mL Fetal Calf Serum, 1.25 mL insulin (4 mg/mL, Gibco) and […] RPMI media with 2 mM L-glutamine for a total volume of 500 mL.
# (§2) Cells were treated by aspirating plating media from each well and adding 80 μL of betulinic acid (control) or each analog solution in serial dilutions to the adherent cells. All treatments were performed in triplicate. Growth media (80 μL) was added to 3 blank wells (no cells) to measure background from the growth media. Growth media alone (no DMSO or test compound) was added to 3 wells containing cells to measure the baseline MTS activity. Vehicle (DMSO) control in serial dilutions, added to cells, was also included to monitor basal toxicity from DMSO. Cells were incubated at 37° C. for 72 h, or 120 h for the OVCAR cell lines. MTS reagent (per 96-well plate) were prepared by combining 2 mL of MTS working solution (Cell Titer AQueous Non-Radioactive Cell Proliferation Assay, Promega, cat#G1112), 100 μL of 0.92 mg/mL phenazine methosulfate/Dulbecco's PBS and 2.1 mL growth media. MTS reagent (40 μL) were added to each well and incubated at 37° C. for 1.5 to 4 h. Plates were gently shaken by hand until solution in each well appeared homogenous. Absorbances at 490 nm were measured on a Wallac Victor II plate reader at multiple time points following the addition of MTS reagent for each plate. Triplicate absorbance (490 nm) measurements were averaged following background (no cell) subtraction for each drug concentration. Percent Cell Viability was calculated for each drug concentration using the following equation:
# (§3) {[Absorbance(analog treated)]/[Absorbance(DMSO treated)]}×100%
# SK-MEL-2 (melanoma) = assay: MTS cell viability assay, SK-MEL-2
# Description: as §1, §2, §3
# (§4) Cytotoxicity dose response for the triterpenoid derivatives synthesized in SK-MEL-2 (melanoma), A-375 (melanoma), Daoy (glioblastoma), LN-229 (glioblastoma), OVCAR-3 (ovarian carcinoma), HT-29 (colon carcinoma), MCF-7 (breast carcinoma) cell lines using the standard MTS assay is summarized in Table 1. In Table 1, compounds 22a-d and compounds 23a-c refer to structures 22 and 23 in Scheme 5, respectively. Compounds 24aa-an and 24ba-bq refer to structure 24 in Scheme 6. Compounds 26a-e refer to structure 26 in Scheme 6. Compounds 36a-c refer to structure 36 in Scheme 10.
# Daoy = assay: MTS cell viability assay, Daoy; settings: cells incubated 72 h
# Description: as §1, §2, §3, §4
# LN-229 (glioblastoma) = assay: MTS cell viability assay, LN-229
# Description: as §1, §2, §3, §4
# HT-29 (colon carcinoma) = assay: MTS cell viability assay, HT-29
# Description: as §1, §2, §3, §4
# CEM = assay: MTS cell viability assay, CEM; settings: cells incubated 72 h
# Description: as §1, §2, §3
# [1] = system: OVCAR-3 (ovarian carcinoma); assay: MTS cell viability assay, OVCAR-3
# Description: as §1, §2, §3, §4
# MCF-7 (breast carcinoma) = assay: MTS cell viability assay, MCF-7
# Description: as §1, §2, §3, §4
# A-375 (melanoma) = assay: MTS cell viability assay, A-375
# Description: as §1, §2, §3, §4
# [2] = Homo sapiens, SK-MEL-2, cells incubated 72 h
# [3] = Homo sapiens, LN-229, cells incubated 72 h
# [4] = Homo sapiens, HT-29, cells incubated 72 h
# [5] = Homo sapiens, OVCAR-3, 120 h for the OVCAR cell lines
# [6] = Homo sapiens, MCF7, cells incubated 72 h
# [7] = Homo sapiens, A-375, cells incubated 72 h
Compound,IC50 (H-146) [µM],IC50 (SK-MEL-2 (melanoma); cells incubated 72 h) [µM],IC50 (Daoy) [µM],IC50 (LN-229 (glioblastoma); cells incubated 72 h) [µM],IC50 (HT-29 (colon carcinoma); cells incubated 72 h) [µM],IC50 (CEM) [µM],IC50 ([1]; 120 h for the OVCAR cell lines) [µM],IC50 (MCF-7 (breast carcinoma); cells incubated 72 h) [µM],IC50 (A-375 (melanoma); cells incubated 72 h) [µM],IC50 (SK-MEL-2 (melanoma); [2]) [µM],"IC50 (Daoy; Homo sapiens, Daoy) [µM]",IC50 (LN-229 (glioblastoma); [3]) [µM],IC50 (HT-29 (colon carcinoma); [4]) [µM],"IC50 [1, 5] [µM]",IC50 (MCF-7 (breast carcinoma); [6]) [µM],IC50 (A-375 (melanoma); [7]) [µM]
"C=C(C)[C@@H]1CC[C@]2(C(=O)O)CC[C@]3(C)[C@H](CC[C@@H]4[C@@]5(C)CC[C@H](O)C(C)(C)[C@@H]5CC[C@]43C)[C@@H]12 [Compound 1, betulinic acid (3β-hydroxy-lup-20(29)-en-28-oic acid), reference compound]",8,7,11,29,31,2,40,30,22,,,,,,,
C=C(CO)[C@@H]1CC[C@]2(COC3CCCCO3)CC[C@]3(C)[C@H](CC[C@@H]4[C@@]5(C)CCC(=O)C(C)(C)[C@@H]5CC[C@]43C)[C@@H]12 (stereo partly drawn) [Compound 5],,,,,,,,,,34,35,46,75,48,37,
C=C(C=O)[C@@H]1CC[C@]2(COC3CCCCO3)CC[C@]3(C)[C@H](CC[C@@H]4[C@@]5(C)CCC(=O)C(C)(C)[C@@H]5CC[C@]43C)[C@@H]12 (stereo partly drawn) [Compound 9a],,,,,,,,,,7,7,,9,9,32,< 3
C=C(C=O)[C@@H]1CC[C@]2(CO)CC[C@]3(C)[C@H](CC[C@@H]4[C@@]5(C)CCC(=O)C(C)(C)[C@@H]5CC[C@]43C)[C@@H]12 [Compound 9b],,,,,,,,,,16,16,20,52,6,56,18
C=C(C(OC)OC)[C@@H]1CC[C@]2(CO)CC[C@]3(C)[C@H](CC[C@@H]4[C@@]5(C)CCC(=O)C(C)(C)[C@@H]5CC[C@]43C)[C@@H]12 [Compound 10],,,,,,,,,,17,17,24,15,45,17,7
C=C(C=O)[C@@H]1CC[C@]2(COC(C)=O)CC[C@]3(C)[C@H](CC[C@@H]4[C@@]5(C)CCC(=O)C(C)(C)[C@@H]5CC[C@]43C)[C@@H]12 [Compound 14a],,,,,,,,,,12,7,9,46,4,56,16
C=C(COS(C)(=O)=O)[C@@H]1CC[C@]2(CO)CC[C@]3(C)[C@H](CC[C@@H]4[C@@]5(C)CCC(=O)C(C)(C)[C@@H]5CC[C@]43C)[C@@H]12 [Compound 21b],,,,,,,,,,> 75,> 75,46,17,> 75,54,21
C=C(CNCCO)[C@@H]1CC[C@]2(CO)CC[C@]3(C)[C@H](CC[C@@H]4[C@@]5(C)CCC(=O)C(C)(C)[C@@H]5CC[C@]43C)[C@@H]12 [Compound 22b],,,,,,,,,,45,47,16,45,67,47,10
C=C(CO)[C@@H]1CC[C@]2(COC3CCCCO3)CC[C@]3(C)[C@H](CC[C@@H]4[C@@]5(C)CCC(N)C(C)(C)[C@@H]5CC[C@]43C)[C@@H]12 (stereo partly drawn) [Compound 24aa],,,,,,,,,,5,4,4,12,15,6,0.89
C=C(CO)[C@@H]1CC[C@]2(COC3CCCCO3)CC[C@]3(C)[C@H](CC[C@@H]4[C@@]5(C)CCC(NCCO)C(C)(C)[C@@H]5CC[C@]43C)[C@@H]12 (stereo partly drawn) [Compound 24ac],,,,,,,,,,15,15,11,60,7,36,13
C=C(CO)[C@@H]1CC[C@]2(CO)CC[C@]3(C)[C@H](CC[C@@H]4[C@@]5(C)CCC(NCCO)C(C)(C)[C@@H]5CC[C@]43C)[C@@H]12 (stereo partly drawn) [Compound 24ad],,,,,,,,,,34,29,37,65,39,41,16
C=C(CO)[C@@H]1CC[C@]2(COC3CCCCO3)CC[C@]3(C)[C@H](CC[C@@H]4[C@@]5(C)CCC(NCCOC)C(C)(C)[C@@H]5CC[C@]43C)[C@@H]12 (stereo partly drawn) [Compound 24ae],,,,,,,,,,34,28,17,19,17,16,6
C=C(CO)[C@@H]1CC[C@]2(CO)CC[C@]3(C)[C@H](CC[C@@H]4[C@@]5(C)CCC(NCCOC)C(C)(C)[C@@H]5CC[C@]43C)[C@@H]12 (stereo partly drawn) [Compound 24af],,38,34,38,47,,40,40,18,,,,,,,
C=C(CO)[C@@H]1CC[C@]2(CO)CC[C@]3(C)[C@H](CC[C@@H]4[C@@]5(C)CCC(NCCc6ccc(O)cc6)C(C)(C)[C@@H]5CC[C@]43C)[C@@H]12 (stereo partly drawn) [Compound 24ag],,12,16,17,26,,5,28,17,,,,,,,
C=C(CO)[C@@H]1CC[C@]2(COC3CCCCO3)CC[C@]3(C)[C@H](CC[C@@H]4[C@@]5(C)CCC(NCCc6ccc(O)c(O)c6)C(C)(C)[C@@H]5CC[C@]43C)[C@@H]12 (stereo partly drawn) [Compound 24ai],,,,,,,,,,5,6,16,26,4,16,14
C=C(CO)[C@@H]1CC[C@]2(CO)CC[C@]3(C)[C@H](CC[C@@H]4[C@@]5(C)CCC(NCCc6ccc(O)c(O)c6)C(C)(C)[C@@H]5CC[C@]43C)[C@@H]12 (stereo partly drawn) [Compound 24aj],,,,,,,,,,24,34,17,37,18,31,6
C=C(CO)[C@@H]1CC[C@]2(CO)CC[C@]3(C)[C@H](CC[C@@H]4[C@@]5(C)CCC(NCCNC(=O)OC(C)(C)C)C(C)(C)[C@@H]5CC[C@]43C)[C@@H]12 (stereo partly drawn) [Compound 24am],,16,16,17,> 75,,2.5,35,17,,,,,,,
C=C(CNCCO)[C@@H]1CC[C@]2(CO)CC[C@]3(C)[C@H](CC[C@@H]4[C@@]5(C)CCC(NC6CCC(O)CC6)C(C)(C)[C@@H]5CC[C@]43C)[C@@H]12 (stereo partly drawn) [Compound 24bj],,5,5,16,2,,,4,7,,,,,,,
C=C(CO)[C@@H]1CC[C@]2(COC3CCCCO3)CC[C@]3(C)[C@H](CC[C@@H]4[C@@]5(C)C=CC(=O)C(C)(C)[C@@H]5CC[C@]43C)[C@@H]12 (stereo partly drawn) [Compound 28],,,,,,,,,,19,16,,19,30,5,18
C=C(C)[C@@H]1CC[C@]2(COC3CCCCO3)CC[C@]3(C)[C@H](CC[C@@H]4[C@@]5(C)C=C(C=O)C(=O)C(C)(C)[C@@H]5CC[C@]43C)[C@@H]12 (stereo partly drawn) [Compound 32],,,,,,,,,,< 2,< 2,2,6,6,6,6
CC(CNCCO)[C@@H]1CC[C@]2(COC3CCCCO3)CC[C@]3(C)[C@H](CC[C@@H]4[C@@]5(C)CCC(O)C(C)(C)[C@@H]5CC[C@]43C)[C@@H]12 (stereo partly drawn) [Compound 36a],,,,,,,,,,4,4,28,5,,7,5

# Reference: patent US20090062243A1, “Lupane-Type Triterpenoids Modified at 30-Position and Analogues Thereof” (ADVANCED LIFE SCIENCES, INC., priority 2007, published 2009)
